According to PMC10290372, “Synthesis and tyrosinase inhibitory activities of novel isopropylquinazolinones” (BMC Chemistry, 2023):
“Also recorded” adds a separate entry of the source. Where two headings read alike, the source gives them in different places.

Tests used:
B16F10 cell line [1] = test system: B16F10 cell line; design: method as in PMID 33640246; settings: cited from earlier work
tyrosinase [2] = settings: cited from earlier work; for IC50: tyrosinase
B16F10 cell line [3] = test system: B16F10 cell line; design: method as in PMID 33640246; settings: cited from earlier work; remark: listed apart in the source
[4] = DPPH radical scavenging assay (antioxidant activity); settings: for % Inhibition at 100 µM: 100 µM compound, mean ± S.E of three independent experiments; for antioxidant capacity: result in words; for IC50: NA means not active, read-out: IC50 (µM) ± RSD
Protocol: In vitro antioxidant activities of the synthesized compounds were determined quantitatively using DPPH radical scavenging assay. DPPH is a stable free radical at room temperature and accepts an electron or hydrogen radical from an antioxidant to become a stable diamagnetic molecule. […] Similar to previous studies, halogens especially fluorine, increases antioxidant activity.
The DPPH antioxidant potencies of all derivatives were performed according to previously published articles.

mushroom tyrosinase = molecular target: T1, mushroom tyrosinase (Agaricus bisporus, UniProt C7FF04); assay: Screening of mushroom tyrosinase inhibitory activity (oxidation of L-dopa); type: biochemical; settings: L-dopa substrate, mean ± S.E; for inhibition at 50 µM: 50 µM compound
T1 construct: purchased Sigma-Aldrich, St Louis, MO, USA
T1 sequence (C7FF04 1-392 limits assumed): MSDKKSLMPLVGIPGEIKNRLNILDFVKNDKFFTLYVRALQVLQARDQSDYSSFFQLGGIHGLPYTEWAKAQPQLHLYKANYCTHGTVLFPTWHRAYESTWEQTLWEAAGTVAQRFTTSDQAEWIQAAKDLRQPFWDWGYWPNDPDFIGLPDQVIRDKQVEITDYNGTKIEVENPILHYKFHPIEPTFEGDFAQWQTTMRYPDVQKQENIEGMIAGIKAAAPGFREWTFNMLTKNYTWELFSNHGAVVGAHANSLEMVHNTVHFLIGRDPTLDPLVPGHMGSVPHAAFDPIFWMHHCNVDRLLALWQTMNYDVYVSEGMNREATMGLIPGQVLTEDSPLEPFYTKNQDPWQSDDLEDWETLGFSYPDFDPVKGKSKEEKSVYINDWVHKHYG
Protocol: All newly synthesized compounds (9a–q) were examined for their inhibitory potentials against the tyrosinase enzyme and the results were presented in Table 1 and the structure–activity relationships (SARs) were constructed. […].
Tyrosinase inhibitory activity was determined based on the previously described procedure with a slight modification. In brief, the test reaction mixture comprised 10 µL of each derivative, and 10 µL of mushroom tyrosinase (500 units; Sigma-Aldrich, St Louis, MO, USA) in 160 potassium phosphate buffer (pH = 6.8). The reaction mixture was incubated at 37 °C for 20 min and then 20 µL of L-Dopa (0.5 mmol/L) was added to each well, and the absorption was measured at 475 nm. The absorbance of the same mixture without tyrosinase was used as the control. Kojic acid was used as a positive control. The optical density of the inhibition in the control was considered to represent 100%. The data are expressed as mean percentages and the results were repeated in triplicate.

tyrosinase [5] = molecular target: tyrosinase (Agaricus bisporus, UniProt C7FF04); assay: Enzyme kinetic studies of tyrosinase inhibition (Lineweaver-Burk and secondary plots); type: biochemical, mushroom
Chain of tyrosinase (Agaricus bisporus, UniProt C7FF04) (C7FF04 2-392): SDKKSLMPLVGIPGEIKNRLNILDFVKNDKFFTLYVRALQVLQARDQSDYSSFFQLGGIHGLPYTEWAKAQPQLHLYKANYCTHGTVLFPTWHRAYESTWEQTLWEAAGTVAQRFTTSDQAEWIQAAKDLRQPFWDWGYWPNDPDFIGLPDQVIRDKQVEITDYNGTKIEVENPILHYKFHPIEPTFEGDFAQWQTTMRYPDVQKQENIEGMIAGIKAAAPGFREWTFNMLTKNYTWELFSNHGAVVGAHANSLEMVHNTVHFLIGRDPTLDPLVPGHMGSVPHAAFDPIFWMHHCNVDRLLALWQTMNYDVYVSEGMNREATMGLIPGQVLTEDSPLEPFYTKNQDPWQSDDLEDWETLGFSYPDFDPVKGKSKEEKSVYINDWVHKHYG
Protocol: Fig. 2 Kinetics of tyrosinase inhibition by 9q. a The Lineweaver–Burk plot in the absence and presence of different concentrations of 9q; b The secondary plot of slopes of the lines vs various concentrations of 9q; c The secondary plot of 1/Vmax vs various concentrations of 9q
A Lineweaver–Burk plot was generated to identify the type of inhibition and the Michaelis–Menten constant (Km) value was determined from the plot between the reciprocal of the substrate concentration (1/[S]) and reciprocal of enzyme rate (1/V) over various inhibitor concentrations.

Compound: O=c1cc(CSc2nc3ccccc3c(=O)n2Cc2ccccn2)occ1O [C]
- toxicity (B16F10 cell line [1]): limited toxicity
- IC50 (tyrosinase [2]): 0.46 ± 0.9 µM
- melanin content (B16F10 cell line [3]): reduced the melanin content

Compound: CC(C)n1c(SCC(=O)Nc2ccccc2)nc2ccccc2c1=O [Compound 9a, 2-((3-Isopropyl-4-oxo-3,4-dihydroquinazolin-2-yl)thio)-N-phenylacetamide]
- % Inhibition at 100 µM [4]: 2.941 ± 1.76%
- antioxidant capacity [4]: no antioxidant capacity
- inhibition at 50 µM (mushroom tyrosinase): 21.6 ± 3.79%
- melting point: 190 to 192 °C

Compound: CC(C)n1c(SCC(=O)Nc2ccccc2Cl)nc2ccccc2c1=O [Compound 9b, N-(2-chlorophenyl)-2-((3-isopropyl-4-oxo-3,4-dihydroquinazolin-2-yl)thio)acetamide]
- % Inhibition at 100 µM [4]: 26.47 ± 2.48%
- inhibition at 50 µM (mushroom tyrosinase): 38 ± 4.68%
- melting point: 207 to 209 °C

Compound: CC(C)n1c(SCC(=O)Nc2cccc(Cl)c2)nc2ccccc2c1=O [Compound 9c, N-(3-chlorophenyl)-2-((3-isopropyl-4-oxo-3,4-dihydroquinazolin-2-yl)thio)acetamide]
- % Inhibition at 100 µM [4]: 18.71 ± 5.39%
- inhibition at 50 µM (mushroom tyrosinase): 27.8 ± 1.19%
- melting point: 203 to 205 °C

Compound: CC(C)n1c(SCC(=O)Nc2ccc(Cl)cc2)nc2ccccc2c1=O [Compound 9d, N-(4-chlorophenyl)-2-((3-isopropyl-4-oxo-3,4-dihydroquinazolin-2-yl)thio)acetamide]
- % Inhibition at 100 µM [4]: 42.78 ± 4.86%
- inhibition at 50 µM (mushroom tyrosinase): 26.9 ± 4.67%
- melting point: 211 to 213 °C

Compound: CC(C)n1c(SCC(=O)Nc2ccc(Br)cc2)nc2ccccc2c1=O [Compound 9e, N-(4-bromophenyl)-2-((3-isopropyl-4-oxo-3,4-dihydroquinazolin-2-yl)thio)acetamide]
- % Inhibition at 100 µM [4]: 41.44 ± 3.85%
- inhibition at 50 µM (mushroom tyrosinase): 24.8 ± 3.12%
- melting point: 203 to 205 °C

Compound: CC(C)n1c(SCC(=O)Nc2ccc([N+](=O)[O-])cc2)nc2ccccc2c1=O [Compound 9f, 2-((3-isopropyl-4-oxo-3,4-dihydroquinazolin-2-yl)thio)-N-(4-nitrophenyl)acetamide]
- % Inhibition at 100 µM [4]: 4.87 ± 1.65%
- inhibition at 50 µM (mushroom tyrosinase): 32.7 ± 5.67%
- melting point: 216 to 218 °C

Compound: Cc1ccccc1NC(=O)CSc1nc2ccccc2c(=O)n1C(C)C [Compound 9g, 2-((3-isopropyl-4-oxo-3,4-dihydroquinazolin-2-yl)thio)-N-(o-tolyl)acetamide]
- inhibition at 50 µM (mushroom tyrosinase): 34.6 ± 4.67%
- melting point: 196 to 198 °C

Compound: Cc1ccc(NC(=O)CSc2nc3ccccc3c(=O)n2C(C)C)cc1 [Compound 9h, 2-((3-isopropyl-4-oxo-3,4-dihydroquinazolin-2-yl)thio)-N-(p-tolyl)acetamide]
- % Inhibition at 100 µM [4]: 29.41 ± 1.76%
- inhibition at 50 µM (mushroom tyrosinase): 26.7 ± 6.42%
- melting point: 199 to 201 °C

Compound: COc1ccc(NC(=O)CSc2nc3ccccc3c(=O)n2C(C)C)cc1 [Compound 9i, 2-((3-isopropyl-4-oxo-3,4-dihydroquinazolin-2-yl)thio)-N-(4-methoxyphenyl)acetamide]
- % Inhibition at 100 µM [4]: 20.05 ± 3.47%
- inhibition at 50 µM (mushroom tyrosinase): 25.4 ± 3.13%
- melting point: 205 to 207 °C

Compound: CC(C)n1c(SCC(=O)Nc2ccc(O)cc2)nc2ccccc2c1=O [Compound 9j, N-(4-hydroxyphenyl)-2-((3-isopropyl-4-oxo-3,4-dihydroquinazolin-2-yl)thio)acetamide]
- % Inhibition at 100 µM [4]: 40.83 ± 4.53%
- inhibition at 50 µM (mushroom tyrosinase): 35.5 ± 4.91%
- melting point: 193 to 195 °C

Compound: CCc1ccc(NC(=O)CSc2nc3ccccc3c(=O)n2C(C)C)cc1 [Compound 9k, N-(4-ethylphenyl)-2-((3-isopropyl-4-oxo-3,4-dihydroquinazolin-2-yl)thio)acetamide]
- % Inhibition at 100 µM [4]: 10.16 ± 4.27%
- inhibition at 50 µM (mushroom tyrosinase): 20.4 ± 4.19%
- melting point: 195 to 197 °C

Compound: Cc1cccc(NC(=O)CSc2nc3ccccc3c(=O)n2C(C)C)c1C [Compound 9l, N-(2,3-dimethylphenyl)-2-((3-isopropyl-4-oxo-3,4-dihydroquinazolin-2-yl)thio)acetamide]
- % Inhibition at 100 µM [4]: 5.08 ± 2.14%
- inhibition at 50 µM (mushroom tyrosinase): 18.2 ± 5.52%
- melting point: 217 to 219 °C

Compound: Cc1ccc(NC(=O)CSc2nc3ccccc3c(=O)n2C(C)C)c(C)c1 [Compound 9m, N-(2,4-dimethylphenyl)-2-((3-isopropyl-4-oxo-3,4-dihydroquinazolin-2-yl)thio)acetamide]
- % Inhibition at 100 µM [4]: 21.12 ± 2.99%
- inhibition at 50 µM (mushroom tyrosinase): 27.3 ± 3.43%
- melting point: 222 to 225 °C

Compound: Cc1cccc(C)c1NC(=O)CSc1nc2ccccc2c(=O)n1C(C)C [Compound 9n, N-(2,6-dimethylphenyl)-2-((3-isopropyl-4-oxo-3,4-dihydroquinazolin-2-yl)thio)acetamide]
- % Inhibition at 100 µM [4]: 44.38 ± 5.03%
- inhibition at 50 µM (mushroom tyrosinase): 16.3 ± 6.57%
- melting point: 215 to 217 °C

Compound: CC(C)n1c(SCC(=O)Nc2ccc3ccccc3c2)nc2ccccc2c1=O [Compound 9o, 2-((3-isopropyl-4-oxo-3,4-dihydroquinazolin-2-yl)thio)-N-(naphthalen-2-yl)acetamide]
- % Inhibition at 100 µM [4]: 68.44 ± 4.84%
- IC50 [4]: 38.8 µM
- inhibition at 50 µM (mushroom tyrosinase): 35.2 ± 3.88%
- melting point: 217 to 219 °C

Compound: CC(C)n1c(SCC(=O)NCc2ccccc2)nc2ccccc2c1=O [Compound 9p, N-benzyl-2-((3-isopropyl-4-oxo-3,4-dihydroquinazolin-2-yl)thio)acetamide]
- % Inhibition at 100 µM [4]: 4.47 ± 2.35%
- antioxidant capacity [4]: no antioxidant capacity
- inhibition at 50 µM (mushroom tyrosinase): 29.1 ± 5.24%
- melting point: 194 to 196 °C

Compound: CC(C)n1c(SCC(=O)NCc2ccc(F)cc2)nc2ccccc2c1=O [Compound 9q, N-(4-fluorobenzyl)-2-((3-isopropyl-4-oxo-3,4-dihydroquinazolin-2-yl)thio)acetamide]
- % Inhibition at 100 µM [4]: 60.33 ± 5.53%
- IC50 [4]: 40.7 µM
- inhibition at 50 µM (mushroom tyrosinase): 54.5 ± 3.94%
- IC50 (mushroom tyrosinase; NA means not active): 34.7 ± 3.68 µM
- type of inhibition (tyrosinase [5]; Lineweaver-Burk plot, L-Dopa substrate, 9q at 10-50 µM): mix-type inhibition; also recorded: mix-type inhibitor; also recorded: mixed mode of inhibition
- inhibition constant with the enzyme-substrate complex (KIS) (tyrosinase [5]; secondary plot of 1/Vmax vs inhibitor concentration): 87.32 µM

Compound: O=c1[nH]c(-c2ccc(F)cc2)nc2ccccc12 [Compound A, 2–4-fluorophenyl-quinazolin-4(3H)-one]
- type of inhibition (tyrosinase [2]; kinetic studies): reversible and mixed-type inhibitor
- IC50 (tyrosinase [2]; diphenolase activity): 120 ± 2 µM

Compound: CC(C)=CCC/C(C)=C/c1nc2ccccc2c(=O)[nH]1 [D]
- type of inhibition (tyrosinase [2]): mix type inhibition pattern
- IC50 (tyrosinase [2]): 103 ± 2 µM

Compound: CC(C)n1c(=S)[nH]c2ccccc2c1=O [E]
- IC50 (tyrosinase [2]): 15.5 ± 1.19 µM

Compound: CC(C)N1C(=O)c2ccccc2NC1SCc1ccccc1 (stereo not drawn) [F]
- IC50 (tyrosinase [2]): 71 ± 3.37 µM

Compound: O=c1c(O)c(-c2ccc(O)c(O)c2)oc2cc(O)cc(O)c12 [Quercetin, reference compound]
- IC50 [4]: 18.6 µM
